Entries after “also recorded” stand apart in the source; their conditions may differ.
Experiments:
[1] = test system: sub-lethally irradiated mouse model; assay: Sub-lethally irradiated (6 Gy) mouse model, ANC; type: in vivo, mice; parameters: platelet level, level below which decrease was prevented at any timepoint / ANC, level below which decline was prevented at any time: unit not given here
Procedure: FIG. 9 is a graph of absolute neutrophil count (ANC) response to NaST7 (500 mg/kg IP and 300 mg/kg IP) after sub-lethal does of irradiation where mice were exposed to 6 Gy irradiation on day 0 and daily ST7 (enantiomer) was administered at two doses, beginning day 1.
(§1) In particular, absolute neutrophil count (ANC) increased after administration of NaST7 (500 mg/kg IP and 300 mg/kg IP) after sub-lethal does of irradiation (e.g., exposure to 6 Gy irradiation on day 0).

erythropoiesis [2] = assay: ST7 once daily to mice for 5 days: erythropoiesis (hematocrit, hemoglobin); type: in vivo; settings: once daily for 5 days, by day 14
[3] = PK profiles after oral and IV administration in baboons; type: in vivo
Procedure: (§2) FIGS. 8A-8B show […] and oral bioavailability of ST7. […] Target does equivalent to 20 mg/kg in an adult human.
(§3) Accordingly, ST7 is suitable for once/day dosing.

[4] = test system: Chemotherapy-Induced Neutropenia Murine Model; assay: Chemotherapy (5-FU)-induced neutropenia murine model; type: in vivo, mice
Procedure: Mice were treated with 5-FU on day 0, then received daily SC injection of saline or ST7 or G-CSF beginning on Day 1 and absolute neutrophil counts (ANC) were assessed on days 0, 9 and 13.
Additionally, administration of ST7 also enhances Myeloid Recovery in a Chemotherapy-Induced Neutropenia Murine Model. Mice were treated with 5-FU on day 0, then received daily SC injection of saline (control) or ST7 or G-CSF beginning on Day 1 and the absolute neutrophil counts (ANC) were assessed on days 0, 9 and 13.

[5] = test system: cultured normal human neutophils; assay: Human neutrophil survival in vitro; type: cell-based; settings: 200 μM, 50 μM
Description: (§4) FIG. 7A is a histogram showing hemokines SCFADs induce anti-apoptotic proteins. FIG. 7B is a western blot of Mcl-1L to Mcl-1S protein expression (with β-actin as a protein loading control).

[6] = test system: erythropoiesis and myelopoiesis; assay: In vitro cell culture testing of stimulation of erythropoiesis and myelopoiesis; type: cell-based; settings: for concentration giving stimulation of erythropoiesis and myelopoiesis: cell culture, data not shown
Description: ST7S is shown to stimulate myelopoiesis and erythropoiesis in animal subjects. […] Thus, the employed concentration of S isomer is about 4-fold lower than that of racemate to achieve similar degrees of erythropoiesis and myelopoiesis.

[7] = Oral administration to a normal human subject, plasma levels; type: in vivo
Procedure: as §2, §3

erythropoiesis [8] = assay: Oral ST7 in baboon with daily phlebotomy, chronic anemia; type: in vivo; settings: oral 50 mg/kg per day, 5 days a week over 3 weeks
[9] = test system: WBC and neutrophil counts; assay: WBC and absolute neutrophil counts (ANC) in baboons; type: in vivo, baboon
Procedure: FIG. 12 is a graph showing increase in both white blood cells (WBC) and Absolute neutrophil counts (ANC) after oral administration of 200 mg/kg ST7S on days 0-4 results in a 3-fold stimulation in WBC and neutrophil counts over 6 days.
In particular, oral administration of ST7 to a baboon results in a 3-fold stimulation of WBC count over 6 days (FIG. 2A).

[10] = test system: human hematopoietic cultures; assay: CFU-GM colony formation in human hematopoietic cultures; type: cell-based
Mcl-1L to Mcl-1S = assay: Western blot of Mcl-1L to Mcl-1S protein expression (anti-apoptotic proteins); type: cell-based; settings: after exposure
Description: as §4

platelet counts = assay: Platelet counts in nonhuman primates; type: in vivo, baboon; settings: IV to 3 baboons on days 1-3 and 7-9
Procedure: ST7 was administered via IV to baboons on days 1-3 and 7-9. ST7 works as similarly in all three baboons (Baboon numbers: GG24, FM45, FM83).
Administration of ST7 also increases platelet levels after administration to non-human primates.

bone marrow = assay: Lethally-irradiated murine model, bone marrow histology; type: in vivo, mice; settings: LD90 irradiation day 0, daily SC from day 1, day 15
Procedure: Mice were irradiated at LD90 on day 0, and received daily SC injections of ST7-S or saline (control) starting Day 1. Bone marrow was examined on Day 15.
as §1

[11] = oral 200 mg/kg on days 0-4, over 6 days

With CC(Cc1ccccc1)C(=O)O (racemic) [ST7, α-methyl-hydrocinnamic acid] the “ANC, level below which decline was prevented at any time” value ([1]; 500 mg/kg IP and 300 mg/kg IP daily from day 1, 6 Gy on day 0) was at least 200, the “platelet level, level below which decrease was prevented at any timepoint” value ([1]; 500 mg/kg IP and 300 mg/kg IP daily from day 1, sub-lethal irradiation) was at least 200 and the hematocrit (erythropoiesis [2]) was “significant increase in hematocrit”. For the same molecule, the bioavailability ([3]; baboon, in vivo, po, non-human primates, 113 mg/kg) was over 90%, the “PK profiles oral versus IV” value ([3]; non-human primates) was “nearly identical PK profiles” and the “recovery of ANC” value ([4]; 5-FU day 0, daily SC injection from day 1, day 13) was “accelerated recovery of ANC by day 13 as efficiently as G-CSF”. For the same molecule, the “increase in NE (K/μL) as compared to saline control” value ([4]; day 13) was 7-10 fold, the apoptosis of neutrophils [5] was “suppresses apoptosis” and the “concentration giving stimulation of erythropoiesis and myelopoiesis” value [6] was “about 200 μM”. For the same molecule, the “drug levels relative to target dose” value ([7]; normal human subject, oral 1 or 1.4 grams) was “persist above the target dose for several hours”, the “absolute increase in hematocrit level” value (erythropoiesis [8]) was 7 percentage points and the “increase in hematocrit level, % of baseline” value (erythropoiesis [8]) was 28%. The “increase in total hemoglobin level” value (erythropoiesis [8]) was 2.5 g/dL, the “stimulation of WBC count” value ([9]; baboon, oral, over 6 days) was 3 fold and the CFU-GM colony formation [10] was “increases CFU-GM Colony formation”. The “ratios of Mcl-1L to Mcl-1S” value (Mcl-1L to Mcl-1S) was “shifted towards anti-apoptotic actions” and the platelet count (platelet counts) was “stimulation of platelet count in all animals; also recorded: increased platelet counts”.
With CC(Cc1ccccc1)C(=O)[O-].[Na+] (stereo not drawn) [ST7S, S-isomer of alpha-methyl-hydrocinnamic acid] the “time available after administration” value ([3]; about 113 mg/kg administered orally, FIG. 8A) was “at least 4 hours”, the “fold lower concentration of S isomer than racemate for similar degrees of erythropoiesis and myelopoiesis” value [6] was “about 4 fold” and the “concentration giving stimulation of erythropoiesis and myelopoiesis” value [6] was “about 50 μM”. The “time available after administration” value ([7]; about 1.4 g administered orally, FIG. 8B) was “at least 14 hours”, the “neutrophil counts (ANC), short-term administration” value ([9]; baboons, 100 mg/kg at day 0-2 and day 7-9) was “increases neutrophil counts” and the “neutrophil counts (ANC), long term” value ([9]; baboons, 47 days, administered at 1-5 days and 34-38 days) was “increases neutrophil counts; also recorded: Neutrophil counts increase”. The “stimulation in WBC” value [9, 11] was 3 fold, the “stimulation in neutrophil counts” value [9, 11] was 3 fold and the bone marrow histology (bone marrow) was “stimulates bone marrow recovery; also recorded: normocellular marrows”.
